The results in this text go back to US10266609B2, “Immunomodulating beta-1,6-D-glucans” (Innate Biotherapeutics, LLC, priority 2014, dated 2019).

The subject of this test is Anti-β-1,6-Glucan IgG antibodies (affinity purified from IVIG, Baxter). Briefly: ELISA: binding of oligosaccharides to anti-β-1,6-glucan antibodies. Note: key: a plus (+) sign indicates that the glucan was active in the assay; a minus (−) sign indicates that the glucan was not active; the '+/−' symbol indicates inconclusive results. The settings on record: plate coated with oligosaccharide in PBS; 40 ug/mL anti-Beta 1,6 Glucan IgG; anti-human IgG-HRP, TMB, absorbance at 620 nm. The gist of the method:
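Oligosaccharides coated overnight at 4° C in PBS, casein-blocked 1 h at room temperature, then incubated 45 min with 40 ug/mL anti-β-1,6-glucan IgG. Bound IgG detected with anti-human IgG-HRP (1:5000, 45 min, dark) and TMB; absorbance at 620 nm read every 1 min for 60 min.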
In general terms: ELISA stands for enzyme-linked immunosorbent assay.
Take `[N-]=[N+]=NCCO[C@@H]1OC(CO[C@@H]2OC(CO[C@@H]3OC(CO[C@@H]4OC(CO[C@@H]5OC(CO[C@@H]6O[C@H](CO)[C@@H](O)[C@H](O)[C@H]6O)[C@@H](O)[C@H](O)[C@H]5O)[C@@H](O)[C@H](O)[C@H]4O)[C@@H](O)[C@H](O)[C@H]3O)[C@@H](O)[C@H](O)[C@H]2O)[C@@H](O)[C@H](O)[C@H]1O` (stereo partly drawn) [β-O(CH2)2N3, n=6, 2-Azidoethyl [O-β-D-glucopyranosyl-1,6]5-β-D-glucopyranoside]: the “ELISA assay data: glucan active in detection of anti-beta glucan IgG” value (from here on “ELISA assay data: glucan active”) is “+”. Then `O=CCCCCO[C@@H]1O[C@H](CO[C@@H]2O[C@H](CO[C@@H]3O[C@H](CO[C@@H]4O[C@H](CO)[C@@H](O)[C@H](O)[C@H]4O)[C@@H](O)[C@H](O)[C@H]3O)[C@@H](O)[C@H](O)[C@H]2O)[C@@H](O)[C@H](O)[C@H]1O` [β-O(CH2)4C═O, n=4, 1-O-[4-oxybutoxy]-6-O—[O-β-D-glucopyranosyl-(1,6)]3-β-D-glucopyranoside], with “+”; and `N#C[C@H](O[C@@H]1O[C@H](CO[C@@H]2O[C@H](CO)[C@@H](O)[C@H](O)[C@H]2O)[C@@H](O)[C@H](O)[C@H]1O)c1ccccc1` [β-OCH(CN)Ph, n=2, amygdalin, reference compound], with “−”. As to “N-[6-[(O-(β-D-glucopyranosyl-(1,6))3-β-D-glucopyranosyl](2RS,3R,4R,5R)-2,3,4,5-tetrahydroxyhexyl]-4-piperidylacetic acid [4-piperidine(CH2)CO2H, n=4]”, the “ELISA assay data: glucan active” value was “+”. Regarding “N-[6-[(O-(β-D-glucopyranosyl-(1,6))4-β-D-glucopyranosyl](2RS,3R,4R,5R)-2,3,4,5-tetrahydroxyhexyl]-4-piperidylacetic acid [4-piperidine(CH2)CO2H, n=5]”, the “ELISA assay data: glucan active” value was “+”.

Regarding “[(2R,3R,4R,5RS)-2,3,4,5-tetrahydroxy-6-[(N-methyl-N-(5-aminopentyl))amino]hexyl [O-β-D-glucopyranosyl-1,6]6-β-D-glucopyranoside [N(Me),N(CH2)5NH2, n=7]”, the “ELISA assay data: glucan active” value is reported as “+”. Then “[O-β-D-glucopyranosyl-1,6-]5-D-glucose [OH, n=6]”, with “+”.

Regarding “[O-β-D-glucopyranosyl-1,6]6-D-glucopyranoside [OH, n=7]”, the “ELISA assay data: glucan active” value was “+”.
